# In ChEMBL document CHEMBL5325407, “Structure-based development of potent Plasmodium falciparum M1 and M17 aminopeptidase selective and dual inhibitors via S1'-region optimisation” (Eur J Med Chem, 2023):
# The source made the active and inactive calls. No cut-off for these calls is given here.
# Assays:
# [1] = Inhibition of C-terminal 6-His tagged Plasmodium falciparum M17 aminopeptidase (85 to 605 residues) expressed in Escherichia coli BL21 (DE3) cells using H-Leu-NHMec as substrate assessed as apparent inhibition constant preincubated for 10 mins followed by substrate addition by spectrofluorimetric analysis; details: read-out: Ki(app)
# Plasmodium falciparum [2] = test: Inhibition of C-terminal 6-His tagged Plasmodium falciparum M17 aminopeptidase (85 to 605 residues) expressed in Escherichia coli BL21 (DE3) cells using H-Leu-NHMec as substrate at less than 500 nM preincubated for 10 mins followed by substrate addition by spectrofluorimetric analysis
# [3] = Inhibition of C-terminal 6-His tagged Plasmodium falciparum M1 aminopeptidase (195 to 1085 residues) expressed in Escherichia coli BL21(DE3) cells using H-Leu-NHMec as substrate assessed as apparent inhibition constant preincubated for 10 mins followed by substrate addition by spectrofluorimetric analysis; details: read-out: Ki(app)
# Plasmodium falciparum [4] = test: Antiplasmodial activity against drug-sensitive Plasmodium falciparum 3D7 infected in Red blood cell assessed as growth inhibition measured after 72 hrs by LDH assay; format: functional, organism-based; details: 3D7, Erythrocyte
# [5] = Kinetic solubility of the compound in 0.01 M HCL at pH 2.0 measured after 30 mins by nephelometric analysis; format: physicochemical; details: read-out: Kinetic_solubility
# [6] = Inhibition of TEV-fused Plasmodium falciparum M17 aminopeptidase (192 to 1085 residues) expressed in Escherichia coli Rosetta 2 (DE3) cells using alanine para-nitroanilide as substrate assessed as apparent inhibition constant measured after 30 mins by spectrophotometric analysis; details: read-out: Ki(app)
# [7] = Inhibition of TEV-fused Plasmodium falciparum M1 aminopeptidase (192 to 1085 residues) expressed in Escherichia coli Rosetta 2 (DE3) cells using alanine para-nitroanilide as substrate assessed as apparent inhibition constant measured after 30 mins by spectrophotometric analysis; details: read-out: Ki(app)
# [8] = Metabolic stability in human liver microsomes assessed as half life measured for 60 mins in presence of NADPH; format: ADME, Microsome
# [9] = Kinetic solubility of the compound in phosphate buffer at pH 6.5 measured after 30 mins by nephelometric analysis; format: physicochemical; details: read-out: Kinetic_solubility
# [10] = Metabolic stability in mouse liver microsomes assessed as half life measured for 60 mins in presence of NADPH; format: ADME, Microsome
# Plasmodium falciparum [11] = test: Inhibition of C-terminal 6-His tagged Plasmodium falciparum M1 aminopeptidase (195 to 1085 residues) expressed in Escherichia coli BL21(DE3) cells using H-Leu-NHMec as substrate at less than 500 nM preincubated for 10 mins followed by substrate addition by spectrofluorimetric analysis
# [12] = Inhibition of C-terminal 6-His tagged Plasmodium falciparum M1 aminopeptidase (195 to 1085 residues) expressed in Escherichia coli BL21(DE3) cells using H-Leu-NHMec as substrate assessed as initial inhibition constant preincubated for 10 mins followed by substrate addition by spectrofluorimetric analysis
# [13] = biological target: Endoplasmic reticulum aminopeptidase 1 (Homo sapiens) (UniProt Q9NZ08); test: Inhibition of ERAP1 (unknown origin)
# Sequence of Endoplasmic reticulum aminopeptidase 1 (Homo sapiens) (Q9NZ08 whole entry): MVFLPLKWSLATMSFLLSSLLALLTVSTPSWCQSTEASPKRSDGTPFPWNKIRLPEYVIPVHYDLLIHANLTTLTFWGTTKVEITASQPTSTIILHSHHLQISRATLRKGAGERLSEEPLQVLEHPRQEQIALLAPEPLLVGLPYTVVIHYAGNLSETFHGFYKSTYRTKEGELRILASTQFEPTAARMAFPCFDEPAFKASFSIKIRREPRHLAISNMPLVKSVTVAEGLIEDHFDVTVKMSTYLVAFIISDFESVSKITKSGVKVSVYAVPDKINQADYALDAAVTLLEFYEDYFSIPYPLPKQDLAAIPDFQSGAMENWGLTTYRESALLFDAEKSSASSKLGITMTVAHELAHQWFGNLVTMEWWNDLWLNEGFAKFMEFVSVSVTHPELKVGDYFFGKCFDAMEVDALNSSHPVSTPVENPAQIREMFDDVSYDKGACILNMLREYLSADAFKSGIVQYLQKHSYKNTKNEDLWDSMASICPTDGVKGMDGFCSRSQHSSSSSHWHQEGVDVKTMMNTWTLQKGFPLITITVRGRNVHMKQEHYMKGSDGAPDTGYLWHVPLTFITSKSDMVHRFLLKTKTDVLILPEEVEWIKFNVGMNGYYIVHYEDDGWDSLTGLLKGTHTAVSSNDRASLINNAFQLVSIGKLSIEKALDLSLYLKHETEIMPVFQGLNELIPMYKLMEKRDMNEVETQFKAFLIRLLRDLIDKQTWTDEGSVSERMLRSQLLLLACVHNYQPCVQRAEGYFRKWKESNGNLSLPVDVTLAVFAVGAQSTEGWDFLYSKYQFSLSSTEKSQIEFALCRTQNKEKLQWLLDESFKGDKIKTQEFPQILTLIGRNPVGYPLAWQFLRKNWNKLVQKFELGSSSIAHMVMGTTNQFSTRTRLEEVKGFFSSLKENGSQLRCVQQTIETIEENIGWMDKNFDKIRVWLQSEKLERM
# [14] = biological target: Collagenase 3 (Homo sapiens) (UniProt P45452); test: Inhibition of MMP13 (unknown origin) at 10 uM relative to control
# [15] = biological target: T1, Histone deacetylase 8 (Homo sapiens) (UniProt Q9BY41); test: Inhibition of HDAC8 (unknown origin)
# T1 sequence (whole entry): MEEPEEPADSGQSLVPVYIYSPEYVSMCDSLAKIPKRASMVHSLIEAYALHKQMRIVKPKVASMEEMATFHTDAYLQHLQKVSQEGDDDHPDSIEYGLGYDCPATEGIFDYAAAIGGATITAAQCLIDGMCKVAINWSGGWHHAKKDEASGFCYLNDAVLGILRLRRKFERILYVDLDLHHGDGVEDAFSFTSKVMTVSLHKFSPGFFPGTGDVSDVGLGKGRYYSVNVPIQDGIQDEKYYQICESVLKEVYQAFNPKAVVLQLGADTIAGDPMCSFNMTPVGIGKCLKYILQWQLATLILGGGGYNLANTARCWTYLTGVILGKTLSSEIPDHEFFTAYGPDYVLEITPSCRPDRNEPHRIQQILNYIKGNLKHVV
# [16] = biological target: Histone deacetylase 9 (Homo sapiens) (UniProt Q9UKV0); test: Inhibition of HDAC9 (unknown origin)
# [17] = biological target: Matrix metalloproteinase-15 (Homo sapiens) (UniProt P51511); test: Inhibition of MMP15 (unknown origin) at 10 uM relative to control
# HEK293 = test: Cytotoxicity against HEK293 cells assessed as inhibition of cell growth at 40 uM; format: toxicity, cell-based; details: human, hek293, 40 µM
# [18] = biological target: Matrix metalloproteinase-24 (Homo sapiens) (UniProt Q9Y5R2); test: Inhibition of MMP24 (unknown origin) at 10 uM relative to control
# Sequence of Matrix metalloproteinase-24 (Homo sapiens) (Q9Y5R2 whole entry): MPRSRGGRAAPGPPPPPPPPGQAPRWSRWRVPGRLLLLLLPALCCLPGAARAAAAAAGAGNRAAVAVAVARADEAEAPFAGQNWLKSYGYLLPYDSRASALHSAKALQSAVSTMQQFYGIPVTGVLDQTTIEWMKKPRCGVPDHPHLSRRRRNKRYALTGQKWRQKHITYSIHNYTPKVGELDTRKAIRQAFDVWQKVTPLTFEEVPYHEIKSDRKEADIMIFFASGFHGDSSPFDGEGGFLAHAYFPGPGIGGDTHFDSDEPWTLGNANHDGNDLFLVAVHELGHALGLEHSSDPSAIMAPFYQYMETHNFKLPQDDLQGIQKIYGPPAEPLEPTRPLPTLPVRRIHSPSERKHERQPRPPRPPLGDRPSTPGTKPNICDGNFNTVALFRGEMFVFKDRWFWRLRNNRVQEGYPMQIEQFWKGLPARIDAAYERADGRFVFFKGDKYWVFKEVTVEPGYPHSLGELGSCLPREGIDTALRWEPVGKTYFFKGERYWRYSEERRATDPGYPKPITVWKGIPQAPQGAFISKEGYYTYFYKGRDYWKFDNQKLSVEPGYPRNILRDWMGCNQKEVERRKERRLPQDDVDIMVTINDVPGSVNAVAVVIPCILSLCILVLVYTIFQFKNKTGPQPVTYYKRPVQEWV
# [19] = biological target: Endoplasmic reticulum aminopeptidase 2 (Homo sapiens) (UniProt Q6P179); test: Inhibition of ERAP2 (unknown origin)
# [20] = biological target: Histone deacetylase 2 (Homo sapiens) (UniProt Q92769); test: Inhibition of HDAC2 (unknown origin)
# Sequence of Histone deacetylase 2 (Homo sapiens) (Q92769 whole entry): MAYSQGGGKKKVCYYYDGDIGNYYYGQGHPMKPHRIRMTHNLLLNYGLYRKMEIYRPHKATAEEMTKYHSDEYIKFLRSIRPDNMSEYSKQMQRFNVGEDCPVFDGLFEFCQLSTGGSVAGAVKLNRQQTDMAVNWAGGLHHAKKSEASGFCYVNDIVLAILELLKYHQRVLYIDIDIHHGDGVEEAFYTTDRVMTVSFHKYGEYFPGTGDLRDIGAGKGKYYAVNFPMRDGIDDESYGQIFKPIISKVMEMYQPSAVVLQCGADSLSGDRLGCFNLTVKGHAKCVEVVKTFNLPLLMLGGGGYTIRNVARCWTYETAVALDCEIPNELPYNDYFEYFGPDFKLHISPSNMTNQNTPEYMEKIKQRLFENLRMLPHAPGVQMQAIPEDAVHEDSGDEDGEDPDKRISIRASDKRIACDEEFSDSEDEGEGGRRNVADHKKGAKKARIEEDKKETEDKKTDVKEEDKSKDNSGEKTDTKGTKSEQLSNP
# [21] = biological target: Matrix metalloproteinase-9 (Homo sapiens) (UniProt P14780); test: Inhibition of MMP9 (unknown origin) at 10 uM relative to control
# Sequence of Matrix metalloproteinase-9 (Homo sapiens) (P14780 whole entry): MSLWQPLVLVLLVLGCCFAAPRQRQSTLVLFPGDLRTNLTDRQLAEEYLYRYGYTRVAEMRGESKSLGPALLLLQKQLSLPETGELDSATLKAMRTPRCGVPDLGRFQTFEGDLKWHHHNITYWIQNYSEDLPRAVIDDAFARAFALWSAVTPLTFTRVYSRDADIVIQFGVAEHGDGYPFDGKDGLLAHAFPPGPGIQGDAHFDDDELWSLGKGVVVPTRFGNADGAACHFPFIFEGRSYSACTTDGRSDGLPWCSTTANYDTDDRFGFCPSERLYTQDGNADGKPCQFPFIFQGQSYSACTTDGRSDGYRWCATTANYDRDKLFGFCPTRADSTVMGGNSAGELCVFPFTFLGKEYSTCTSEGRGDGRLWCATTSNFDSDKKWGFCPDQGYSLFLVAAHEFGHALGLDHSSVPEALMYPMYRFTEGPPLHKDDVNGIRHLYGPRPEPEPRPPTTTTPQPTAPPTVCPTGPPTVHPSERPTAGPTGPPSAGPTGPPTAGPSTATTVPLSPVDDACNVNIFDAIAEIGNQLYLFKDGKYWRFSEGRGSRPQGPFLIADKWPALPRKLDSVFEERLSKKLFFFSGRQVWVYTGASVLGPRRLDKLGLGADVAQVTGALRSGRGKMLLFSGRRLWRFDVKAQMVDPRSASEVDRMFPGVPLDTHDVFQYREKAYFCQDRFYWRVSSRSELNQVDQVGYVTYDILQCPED
# [22] = biological target: Neutrophil collagenase (Homo sapiens) (UniProt P22894); test: Inhibition of MMP8 (unknown origin) at 10 uM relative to control
# Sequence of Neutrophil collagenase (Homo sapiens) (P22894 101-467 limits assumed): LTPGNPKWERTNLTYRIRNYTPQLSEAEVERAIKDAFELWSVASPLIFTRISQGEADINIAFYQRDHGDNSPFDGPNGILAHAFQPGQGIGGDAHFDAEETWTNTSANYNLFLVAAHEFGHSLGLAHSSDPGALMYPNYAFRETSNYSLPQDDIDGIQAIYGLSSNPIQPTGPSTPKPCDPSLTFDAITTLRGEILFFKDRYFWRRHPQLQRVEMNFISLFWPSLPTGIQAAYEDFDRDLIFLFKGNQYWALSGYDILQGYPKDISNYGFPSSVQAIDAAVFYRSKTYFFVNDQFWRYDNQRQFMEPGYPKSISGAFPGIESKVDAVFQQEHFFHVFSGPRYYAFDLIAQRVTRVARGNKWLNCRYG
# [23] = biological target: Histone deacetylase 1 (Homo sapiens) (UniProt Q13547); test: Inhibition of HDAC1 (unknown origin)
# Sequence of Histone deacetylase 1 (Homo sapiens) (Q13547 whole entry): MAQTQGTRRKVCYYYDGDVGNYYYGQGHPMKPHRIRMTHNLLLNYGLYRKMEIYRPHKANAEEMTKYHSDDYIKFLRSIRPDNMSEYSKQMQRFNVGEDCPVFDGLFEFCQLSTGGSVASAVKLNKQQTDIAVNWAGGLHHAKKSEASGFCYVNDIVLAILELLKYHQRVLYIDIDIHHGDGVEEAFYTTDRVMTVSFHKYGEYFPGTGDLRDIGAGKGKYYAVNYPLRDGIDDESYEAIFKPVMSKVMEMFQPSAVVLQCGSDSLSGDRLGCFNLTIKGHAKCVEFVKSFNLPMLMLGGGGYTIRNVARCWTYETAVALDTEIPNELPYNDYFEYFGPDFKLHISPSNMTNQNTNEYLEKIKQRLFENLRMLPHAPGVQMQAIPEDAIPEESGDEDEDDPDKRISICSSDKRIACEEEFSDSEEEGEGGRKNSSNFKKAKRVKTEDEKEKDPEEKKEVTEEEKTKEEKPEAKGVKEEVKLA
# [24] = Metabolic stability in human liver microsomes assessed as intrinsic clearance measured per mg protein for 60 mins in presence of NADPH; format: ADME, Microsome; details: read-out: CLH
# [25] = biological target: T2, Histone deacetylase 7 (Homo sapiens) (UniProt Q8WUI4); test: Inhibition of HDAC7 (unknown origin)
# T2 sequence (whole entry): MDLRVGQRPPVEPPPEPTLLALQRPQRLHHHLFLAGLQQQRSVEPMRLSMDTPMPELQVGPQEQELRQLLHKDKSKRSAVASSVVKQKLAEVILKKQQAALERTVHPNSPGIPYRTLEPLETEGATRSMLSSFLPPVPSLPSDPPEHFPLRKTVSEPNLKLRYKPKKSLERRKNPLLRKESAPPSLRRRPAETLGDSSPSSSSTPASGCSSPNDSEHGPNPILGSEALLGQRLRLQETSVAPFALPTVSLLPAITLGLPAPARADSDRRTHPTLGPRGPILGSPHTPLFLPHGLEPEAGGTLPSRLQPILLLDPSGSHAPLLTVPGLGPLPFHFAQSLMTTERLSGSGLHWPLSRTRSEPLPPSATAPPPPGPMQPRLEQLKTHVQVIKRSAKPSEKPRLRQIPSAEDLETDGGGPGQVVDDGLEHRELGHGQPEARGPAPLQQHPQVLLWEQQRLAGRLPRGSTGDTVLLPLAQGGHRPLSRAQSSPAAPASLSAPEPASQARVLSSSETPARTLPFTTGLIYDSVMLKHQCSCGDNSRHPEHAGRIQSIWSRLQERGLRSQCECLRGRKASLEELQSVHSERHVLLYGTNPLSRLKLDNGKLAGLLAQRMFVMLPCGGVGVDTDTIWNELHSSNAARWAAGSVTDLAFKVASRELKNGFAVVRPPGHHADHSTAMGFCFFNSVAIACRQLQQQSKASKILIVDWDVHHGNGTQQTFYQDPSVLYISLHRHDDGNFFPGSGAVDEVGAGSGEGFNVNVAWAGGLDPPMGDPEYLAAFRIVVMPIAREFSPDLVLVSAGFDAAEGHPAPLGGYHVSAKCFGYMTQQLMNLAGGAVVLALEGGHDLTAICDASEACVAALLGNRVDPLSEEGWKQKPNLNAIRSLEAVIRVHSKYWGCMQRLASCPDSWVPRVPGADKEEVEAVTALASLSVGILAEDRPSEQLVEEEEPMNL
# [26] = biological target: Histone deacetylase 5 (Homo sapiens) (UniProt Q9UQL6); test: Inhibition of HDAC5 (unknown origin)
# Sequence of Histone deacetylase 5 (Homo sapiens) (Q9UQL6 whole entry): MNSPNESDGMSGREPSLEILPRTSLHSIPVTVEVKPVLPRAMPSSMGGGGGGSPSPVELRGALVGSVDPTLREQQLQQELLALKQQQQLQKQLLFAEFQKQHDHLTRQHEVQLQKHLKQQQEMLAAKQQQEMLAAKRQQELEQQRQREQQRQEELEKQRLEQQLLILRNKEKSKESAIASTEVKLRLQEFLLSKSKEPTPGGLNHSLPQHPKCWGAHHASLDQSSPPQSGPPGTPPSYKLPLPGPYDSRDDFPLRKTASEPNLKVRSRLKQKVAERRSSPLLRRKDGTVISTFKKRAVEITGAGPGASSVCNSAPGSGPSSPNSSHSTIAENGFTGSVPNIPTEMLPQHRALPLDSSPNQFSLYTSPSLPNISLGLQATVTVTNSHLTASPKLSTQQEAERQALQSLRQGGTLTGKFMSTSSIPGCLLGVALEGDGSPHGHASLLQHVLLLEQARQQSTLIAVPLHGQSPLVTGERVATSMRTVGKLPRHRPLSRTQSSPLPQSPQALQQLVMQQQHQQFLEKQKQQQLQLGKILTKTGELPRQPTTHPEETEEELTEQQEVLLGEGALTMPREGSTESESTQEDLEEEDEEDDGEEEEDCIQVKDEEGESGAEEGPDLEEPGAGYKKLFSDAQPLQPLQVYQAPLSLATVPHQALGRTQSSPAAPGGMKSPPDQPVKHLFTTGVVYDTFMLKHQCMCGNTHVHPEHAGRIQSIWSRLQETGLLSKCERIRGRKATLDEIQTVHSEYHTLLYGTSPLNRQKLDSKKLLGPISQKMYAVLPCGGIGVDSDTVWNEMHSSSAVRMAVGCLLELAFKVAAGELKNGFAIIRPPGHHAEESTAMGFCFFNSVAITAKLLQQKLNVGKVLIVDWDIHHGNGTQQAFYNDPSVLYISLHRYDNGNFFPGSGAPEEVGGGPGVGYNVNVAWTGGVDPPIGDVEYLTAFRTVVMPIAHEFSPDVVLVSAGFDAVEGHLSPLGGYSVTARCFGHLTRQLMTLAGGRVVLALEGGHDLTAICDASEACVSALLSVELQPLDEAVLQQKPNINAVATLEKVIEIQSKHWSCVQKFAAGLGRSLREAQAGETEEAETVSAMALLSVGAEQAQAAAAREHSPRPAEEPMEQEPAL
# [27] = Metabolic stability in mouse liver microsomes assessed as intrinsic clearance measured per mg protein for 60 mins in presence of NADPH; format: ADME, Microsome; details: read-out: CLH
# [28] = biological target: T3, Polyamine deacetylase HDAC10 (Homo sapiens) (UniProt Q969S8); test: Inhibition of HDAC10 (unknown origin)
# T3 sequence (whole entry): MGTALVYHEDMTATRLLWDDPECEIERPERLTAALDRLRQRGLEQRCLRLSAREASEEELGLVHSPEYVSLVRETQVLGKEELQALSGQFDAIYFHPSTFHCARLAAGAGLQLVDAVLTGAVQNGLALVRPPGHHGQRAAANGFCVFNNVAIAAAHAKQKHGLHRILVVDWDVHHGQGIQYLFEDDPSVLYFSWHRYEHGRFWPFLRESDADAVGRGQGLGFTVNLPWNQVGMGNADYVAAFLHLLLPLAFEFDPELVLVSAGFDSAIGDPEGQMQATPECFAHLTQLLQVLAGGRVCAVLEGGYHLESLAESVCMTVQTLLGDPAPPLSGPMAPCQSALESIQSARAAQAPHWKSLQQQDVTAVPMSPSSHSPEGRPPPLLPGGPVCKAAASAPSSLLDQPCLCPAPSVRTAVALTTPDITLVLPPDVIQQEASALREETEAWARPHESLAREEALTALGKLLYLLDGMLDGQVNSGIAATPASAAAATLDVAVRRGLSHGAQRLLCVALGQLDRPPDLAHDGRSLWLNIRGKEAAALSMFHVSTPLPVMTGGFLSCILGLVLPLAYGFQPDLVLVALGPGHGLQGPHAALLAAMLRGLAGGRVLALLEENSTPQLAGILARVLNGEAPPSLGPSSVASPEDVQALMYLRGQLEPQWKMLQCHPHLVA
compound,measurement,setting,value
COc1cccc(NCC(=O)NC(C(=O)NO)c2ccc(Br)cc2)c1 (stereo not given),Ki,[1],> 500 nM
same,inhibition,Plasmodium falciparum [2],inactive
same,Ki,[3],72 nM
same,EC50,Plasmodium falciparum [4],102 nM
CC(C)(C)CC(=O)NC(C(=O)NO)c1ccc(-c2cc(F)c(F)c(F)c2)cc1 (stereo not given),solubility kinetic at 0.5 h,[5],12.5 µg/mL
same,Ki,[6],101 nM
same,Ki,[7],269 nM
same,half-life,[8],2.48 h
same,solubility kinetic at 0.5 h,[9],12.5 µg/mL
same,EC50,Plasmodium falciparum [4],63 nM
same,half-life,[10],1.5 h
O=C(NC(C(=O)NO)c1ccc(-c2cc(F)c(F)c(F)c2)cc1)c1cc2ccccc2[nH]1 (stereo not given),Ki,[1],> 500 nM
same,inhibition,Plasmodium falciparum [2],inactive
same,Ki,[3],> 500 nM
same,inhibition,Plasmodium falciparum [11],inactive
O=C(CNc1cc(F)cc(F)c1)NC(C(=O)NO)c1ccc(-c2cc(F)c(F)c(F)c2)cc1 (stereo not given),Ki,[1],> 500 nM
same,Ki,[3],131 nM
same,Ki,[12],513 nM
same,EC50,Plasmodium falciparum [4],675 nM
COc1ccc(NCC(=O)NC(C(=O)NO)c2ccc(Br)cc2)cc1 (stereo not given),Ki,[1],> 500 nM
same,inhibition,Plasmodium falciparum [2],inactive
same,Ki,[3],88 nM
same,EC50,Plasmodium falciparum [4],114 nM
O=C(CNc1ccc(F)cc1)NC(C(=O)NO)c1ccc(Cl)cc1 (stereo not given),Ki,[1],> 500 nM
same,Ki,[3],49 nM
same,EC50,Plasmodium falciparum [4],220 nM
CC(C)(N)CC(=O)NC(C(=O)NO)c1ccc(-c2cc(F)c(F)c(F)c2)cc1 (stereo not given),Ki,[1],28 nM
same,Ki,[3],320 nM
same,EC50,Plasmodium falciparum [4],1350 nM
O=C(CNc1ccc(F)cc1)NC(C(=O)NO)c1ccc(Br)cc1 (stereo not given),Ki,[1],> 500 nM
same,Ki,[3],38 nM
same,EC50,Plasmodium falciparum [4],250 nM
COc1ccccc1NCC(=O)NC(C(=O)NO)c1ccc(Br)cc1 (stereo not given),Ki,[1],> 500 nM
same,inhibition,Plasmodium falciparum [2],inactive
same,Ki,[3],128 nM
same,EC50,Plasmodium falciparum [4],145 nM
O=C(CSc1ccccc1)NC(C(=O)NO)c1ccc(Br)cc1 (stereo not given),Ki,[1],287 nM
same,Ki,[3],68 nM
same,EC50,Plasmodium falciparum [4],230 nM
O=C(CNc1ccccc1)NC(C(=O)NO)c1ccc(-c2cc(F)c(F)c(F)c2)cc1 (stereo not given),inhibition,[13],inactive
same,inhibition,[14],> 50%
same,inhibition,[15],inactive
same,Ki,[1],57 nM
same,inhibition,[16],inactive
same,inhibition,[17],> 50%
same,Activity,HEK293,Non-Toxic
same,inhibition,[18],> 50%
same,solubility kinetic at 0.5 h,[5],3.1 µg/mL
same,inhibition,[19],inactive
same,Ki,[3],66 nM
same,inhibition,[20],inactive
same,inhibition,[21],> 50%
same,half-life,[8],1.77 h
same,inhibition,[22],> 50%
same,inhibition,[23],inactive
same,solubility kinetic at 0.5 h,[9],1.6 µg/mL
same,microsomal CLint,[24],16 µL/min/mg
same,inhibition,[25],inactive
same,EC50,Plasmodium falciparum [4],170 nM
same,inhibition,[26],inactive
same,microsomal CLint,[27],17 µL/min/mg
same,half-life,[10],1.75 h
same,inhibition,[28],inactive
O=C(CNc1ccccc1F)NC(C(=O)NO)c1ccc(-c2cc(F)c(F)c(F)c2)cc1 (stereo not given),Ki,[1],> 500 nM
same,Ki,[3],> 500 nM
same,EC50,Plasmodium falciparum [4],285 nM
O=C(NC(C(=O)NO)c1ccc(-c2cc(F)c(F)c(F)c2)cc1)C1CCO1 (stereo not given),Ki,[1],> 500 nM
same,Ki,[3],203 nM
same,EC50,Plasmodium falciparum [4],350 nM
CC(C)(O)CC(=O)NC(C(=O)NO)c1ccc(-c2cc(F)c(F)c(F)c2)cc1 (stereo not given),Ki,[1],90 nM
same,Ki,[3],154 nM
same,EC50,Plasmodium falciparum [4],155 nM
CC1(C(=O)NC(C(=O)NO)c2ccc(-c3cc(F)c(F)c(F)c3)cc2)COC1 (stereo not given),Ki,[1],294 nM
same,Ki,[3],439 nM
same,EC50,Plasmodium falciparum [4],610 nM
